Results on one compound are retold here after patent US9657025B2, “Pyrazolopyrimidine compounds” (University Health Network, priority 2013, dated 2017).

The assay concerns Ovarian TICs (Ovarian 2393A). The assay is described as follows: Ovarian tumor-initiating cell growth inhibition, Alamar Blue assay. Type of assay: cell-based. The conditions noted are these: 144 h, read-out: Tumor Initiating Cell GI50 Range Ovarian 2393A. The source says: Materials and Methods: Non-tissue or tissure cultured treated T-75 flask and 96-well plates were purchased from VWR. Vitamin B-27 supplement, MEM NEAA (minimum essential medium non-essential amino acids), sodium pyruvate, L-glutamine, N2 supplement, penicillin-streptomycin and fungizone/amphotericin B were obtained from Invitrogen. Lipid mixture, heparin and EGF were purchased from Sigma; bFGF from BD Biosciences. Tumor Initiating Cells (TICs) from colon were routinely maintained using non-tissue cultured treated T-75 flasks in DMEM:F12 medium containing 0.2×B-27 supplement, 4 ug/ml heparin, 1×MEM NEAA, 1×sodium pyruvate, 1 mM glutamine, 10 pg/ul bFGF, 20 pg/ul EGF, 1× N2 supplement, lipid mixture, penicillin-streptomycin and fungizone/amphotericin B. Ovarian TICs were routinely maintained using tissue cultured treated T-75 flasks in DMEM:F12 medium containing 1×B-27 supplement, 4 ug/ml heparin, 20 pg/ul bFGF, 20 pg/ul EGF and penicillin-streptomycin. Assay Protocol: Compounds described herein were dissolved in DMSO and further diluted in cell culture medium for GI50 determination. […] Cell viability was assessed by Alamar Blue assay: 10 ul of Alamar Blue was added into each well. After 4 hours incubation at 37° C., fluorescence was recorded at excitation 544 and emission 590. GI50 (Growth inhibition) was calculated using GraphPad Prism 4.0 software. […]
A general note: Alamar Blue is a resazurin reagent that responds to reducing activity.

Broadly, the GI50 is the concentration at which growth is held to half of that of the control.

Where a name gives a salt, the structure may show the parent alone. Bounds are passed on as bounds.

Turning to `Cc1cc(-c2cnn3c(NC[C@H]4C[C@@](C)(O)C4)cc(Oc4cccnc4)nc23)ccc1C(=O)NC1CC1` [Example A4, N-cyclopropyl-4-(7-((((1s,3s)-3-hydroxy-3-methylcyclobutyl)methyl)amino-5-(pyridin-3-yloxy)pyrazolo[1,5-a]pyrimidin-3-yl)-2-methylbenzamide hydrochloride and itsfreebase], the concentration for 50% growth inhibition (GI50) was less than 100 nM.
